Measurements as given in the OligoGym collection.
These antisense oligonucleotides have a phosphorothioate backbone; sugars and methylation of C are not fully specified.

The sequences below were run against IKBKB. Details: ASO.
Also: test concentration or dose not given here.

Compared with AATGTCACTCAGCAAGGT, ACTCAAAGGCCAGGGTGC is higher in remaining target (mRNA or protein) (fraction of control): 0.25 for the first, 0.59 for the second.

First: ACTGGTTCAGGTACTTCC
Second: ACTTCTGCTGCTCCAGTA
The remaining target (mRNA or protein) (fraction of control) of the first is higher: 0.88 for the first, 0.58 for the second.

Compared with AGGGTGCAGAGGTTATGT, AGTTTATCTGATGTGATC is higher in remaining target (mRNA or protein) (fraction of control): 0.48 for the first, 0.8 for the second.

First: ATCCTAGGTCAATAATTT
Second: CACAGGGTAGGTGTGGAT
The remaining target (mRNA or protein) (fraction of control) of the first is higher: 0.97 for the first, 0.6 for the second.

Going from CAGCTGTGCTCTTCTTCT to CCCCACATGTCTGCGTTG, the remaining target (mRNA or protein) (fraction of control) falls from 0.75 to 0.12.

Going from CGTGAAACTCTGGTCTTG to CTCAGCTGGAAGAAGGCG, the remaining target (mRNA or protein) (fraction of control) falls from 0.48 to 0.4.

Going from CTCGAAGCTCTGAATTGC to CTGAGTGGCAGGCTTATC, the remaining target (mRNA or protein) (fraction of control) falls from 0.48 to 0.28.

First: CTGGGATGCCCGTGTCCT
Second: CTGTCCCAAGGCGCTCTT
The remaining target (mRNA or protein) (fraction of control) of the first is higher: ≥ 1 for the first, 0.42 for the second.

Compared with CTTCGCTAACAACAATGT, CTTCTGCTTGCAAACCAC is lower in remaining target (mRNA or protein) (fraction of control): ≥ 1 for the first, 0.82 for the second.

Going from GACAACAGTCTTCTCATC to GAGGAGATTCATCATGGC, the remaining target (mRNA or protein) (fraction of control) rises from 0.77 to 0.97.

First: GCCAGGACACTGTTAAGA
Second: GCTCAGGTAAGCTGTTGG
The remaining target (mRNA or protein) (fraction of control) of the first is lower: 0.43 for the first, 0.45 for the second.

Compared with GCTTTAGATCCCGATGGA, GGAGAGGCAGCTGTTGTT is lower in remaining target (mRNA or protein) (fraction of control): 0.46 for the first, 0.43 for the second.

Going from GGGAAGGTGACCAGCTCA to GGGCTCTTGAAGGATACA, the remaining target (mRNA or protein) (fraction of control) rises from 0.3 to 0.39.

Compared with GGGCTTCCACTGACAGGA, GTCAGCCTTCTCATGATC is higher in remaining target (mRNA or protein) (fraction of control): 0.18 for the first, ≥ 1 for the second.

Going from GTTCCATTCAAGTCTTCG to TCCTGTACAGCTCCCTTG, the remaining target (mRNA or protein) (fraction of control) falls from 0.78 to 0.13.

TGAGTCTCATAGGTGATT and TGATGGCAATCTGCTCAC cannot be ordered by remaining target (mRNA or protein) (fraction of control): ≥ 1 for the first, ≥ 1 for the second.

Going from TGCACGGGCTGCCAGTTG to TGTAAGTCCACAATGTCG, the remaining target (mRNA or protein) (fraction of control) rises from 0.46 to 0.61.

Going from TGTATTAACCTCTGTTCT to TTAACTTGCCGTCTGAAA, the remaining target (mRNA or protein) (fraction of control) falls from ≥ 1 to 0.8.

Compared with TTAAGATGTCATCCAGGG, TTCAAGATATGAACCAGC is lower in remaining target (mRNA or protein) (fraction of control): ≥ 1 for the first, 0.54 for the second.

Compared with TTGGCCTTGAGCTGCTGA, TTTCACTTCGTTCTCCCG is higher in remaining target (mRNA or protein) (fraction of control): 0.31 for the first, 0.33 for the second.

What follows are sequences tested against IL15. Details: ASO.

Going from AAAAGAAAGGGAGGGAAT to AAGAAGTGTTGATGAACA, the remaining target (mRNA or protein) (fraction of control) falls from ≥ 1 to 0.83.

First: ACACAAGTAGCACTGGAT
Second: ACACCTACCTTTTAATAA
The remaining target (mRNA or protein) (fraction of control) of the first is lower: 0.43 for the first, ≥ 1 for the second.

ACTCTAGGCCCATAGCAA and ACTGGGTATATTAGCTGC are the same in remaining target (mRNA or protein) (fraction of control): 0.58 for the first, 0.58 for the second.

First: AGACATGAATGCCAGCTT
Second: AGCTGGCTATGGCAAGGG
The remaining target (mRNA or protein) (fraction of control) of the first is lower: 0.26 for the first, 0.35 for the second.

Going from AGGCATTAGTAGAGTAAA to AGTGAAATAACTTGTAAC, the remaining target (mRNA or protein) (fraction of control) rises from 0.92 to ≥ 1.

Going from ATAATGGTATGGAGGAAG to ATATTACTCAATGACATT, the remaining target (mRNA or protein) (fraction of control) rises from 0.6 to ≥ 1.

Compared with ATGCATCACCTTTAATCT, ATTAGAAGACAAACTGTT is higher in remaining target (mRNA or protein) (fraction of control): 0.65 for the first, ≥ 1 for the second.

Compared with ATTTAGGTAAGCTACTCT, CATAGCAAGTACATGACA is lower in remaining target (mRNA or protein) (fraction of control): 0.75 for the first, 0.46 for the second.

First: CCAATACCATGAAGGCAT
Second: CCAGCTTCAGTTAGAAAA
The remaining target (mRNA or protein) (fraction of control) of the first is lower: 0.25 for the first, ≥ 1 for the second.

Compared with CCATCCACGATGCCTCCT, CTAGGGTAAAGTATGATC is higher in remaining target (mRNA or protein) (fraction of control): 0.5 for the first, ≥ 1 for the second.

First: CTGAACTGAGAGTCAGAT
Second: CTGTTTTAGGAAGCCCTG
The remaining target (mRNA or protein) (fraction of control) of the first is lower: 0.27 for the first, 0.58 for the second.

First: CTTTTAATAAGCACTCTA
Second: GCCCTGCACTGAAACAGC
The remaining target (mRNA or protein) (fraction of control) of the first is higher: ≥ 1 for the first, 0.39 for the second.

Compared with GCCTCCTACAATACAATC, GGGTGAACATCACTTTCC is lower in remaining target (mRNA or protein) (fraction of control): ≥ 1 for the first, 0.43 for the second.

Compared with GTACATGACAGCCAGGAT, GTATTGAAGAAGAGCTGG is higher in remaining target (mRNA or protein) (fraction of control): 0.35 for the first, ≥ 1 for the second.

First: GTTAGGTGCTTTGGGCCA
Second: TACATTCACCCAGTTGGC
The remaining target (mRNA or protein) (fraction of control) of the first is lower: 0.13 for the first, 0.24 for the second.

Going from TACTTCTCAAATGTGGTT to TCACATTCTTTGCATCCA, the remaining target (mRNA or protein) (fraction of control) falls from ≥ 1 to 0.31.

In the case of TCATCTTCTTGACAGAAA, the remaining target (mRNA or protein) (fraction of control) is reported as ≥ 1.

Each sequence was assayed against PRKAR2A. Details: ASO.

Compared with CGGGATCTGGATGTGGCTCA, CTAGGAACTGGAACTTCCAA is higher in remaining target (mRNA or protein) (fraction of control): 0.81 for the first, 0.91 for the second.

Going from CTCATGCCGGCGGCGGCCGA to CTGACACCTCTAGTGATTTA, the remaining target (mRNA or protein) (fraction of control) rises from 0.96 to ≥ 1.

Compared with CTGGATGTGGCTCATGCCGG, GAGAGACATGCCGTTTTGAA is lower in remaining target (mRNA or protein) (fraction of control): 0.52 for the first, 0.51 for the second.

First: GCAGCGGGCAATCTCGACCT
Second: GCATGTTTATACTTTGGACT
The remaining target (mRNA or protein) (fraction of control) of the first is lower: 0.5 for the first, 0.83 for the second.

Going from GCGCAACCCTACGCTACCAC to GCGGCCACTGTCTCCGCGCT, the remaining target (mRNA or protein) (fraction of control) rises from 0.53 to 0.67.

Going from GCTGTTCCTCATAGTGTGAG to GGATCTGGATGTGGCTCATG, the remaining target (mRNA or protein) (fraction of control) falls from ≥ 1 to 0.71.

Compared with GGATGTGGCTCATGCCGGCG, GGCTCATGCCGGCGGCGGCC is lower in remaining target (mRNA or protein) (fraction of control): 0.94 for the first, 0.62 for the second.

First: GGGTGTTGTACATCAGAGCT
Second: GTGGCTCATGCCGGCGGCGG
The remaining target (mRNA or protein) (fraction of control) of the first is lower: 0.87 for the first, ≥ 1 for the second.

TAATGAATGGGCCTTCAGAA and TACTAAAATGTCATAAGTTC cannot be ordered by remaining target (mRNA or protein) (fraction of control): ≥ 1 for the first, ≥ 1 for the second.

Going from TGAGTGATTATGCGTTCTCC to TGCAGCAGCTCCGTGAGCCC, the remaining target (mRNA or protein) (fraction of control) falls from 0.8 to 0.57.

Compared with TGCCGGCGGCGGCCGAAGGG, TGTGGCTGACCAGAAGGTTT is lower in remaining target (mRNA or protein) (fraction of control): ≥ 1 for the first, 0.53 for the second.

TTCTAAAAGTCACCCGGTCC and TTGAACCTCTGCCCATCCTT are the same in remaining target (mRNA or protein) (fraction of control): 0.39 for the first, 0.39 for the second.

Compared with TTTAGTCCTGCTTCTAATCA, TTTGTTGGTGACCAGGGCAA is lower in remaining target (mRNA or protein) (fraction of control): 0.73 for the first, 0.6 for the second.

These sequences were tested against RHOG. Details: ASO.

AAAAGGCATTCAGGGAAC and AAAGCGTTAGTTGTGTAG cannot be ordered by remaining target (mRNA or protein) (fraction of control): ≥ 1 for the first, ≥ 1 for the second.

Compared with AACTGTGTGGAAAGCTGG, AAGAGGATGCAGGACCGC is lower in remaining target (mRNA or protein) (fraction of control): 0.92 for the first, 0.82 for the second.

Compared with ACACCATCCTGTTGCAGG, ACAGCCTCGGCGAACACT is higher in remaining target (mRNA or protein) (fraction of control): 0.77 for the first, 0.94 for the second.

Going from ACATTCACCTTCTCAGGA to ACCACAATAGGCAGCAAC, the remaining target (mRNA or protein) (fraction of control) falls from 0.8 to 0.69.

First: ACCTCTGGATGCCACTTG
Second: ACGTTGGTCTGAGGGTAG
The remaining target (mRNA or protein) (fraction of control) of the first is higher: 0.65 for the first, 0.62 for the second.

Going from AGCTGGATGAACTGGTCA to AGGGCAGTGGTGGCACAC, the remaining target (mRNA or protein) (fraction of control) rises from 0.77 to 0.85.

Compared with CAATGGAGAAACAGATGA, CAATTCCAAGAGCAGCGA is lower in remaining target (mRNA or protein) (fraction of control): ≥ 1 for the first, 0.82 for the second.

First: CAGCAGGATGGGCACATC
Second: CATAGGACGGCGGACTGG
The remaining target (mRNA or protein) (fraction of control) of the first is lower: 0.8 for the first, 0.83 for the second.

First: CATTCGAGGTAGCGCACA
Second: CCACCACGCACTTGATGC
The remaining target (mRNA or protein) (fraction of control) of the first is lower: 0.61 for the first, 0.86 for the second.

Going from CCCTGCTGCGGTGTGATG to CGCACGTTCTCATAGGAC, the remaining target (mRNA or protein) (fraction of control) rises from 0.56 to 0.76.

First: CGCGAGTGCCTGGCCCTG
Second: GAACACTTCCTTGACACC
The remaining target (mRNA or protein) (fraction of control) of the first is higher: 0.91 for the first, 0.69 for the second.

Compared with GACCTGGTGCCCCTCCCG, GAGGGCAGAGGTTAGAGA is higher in remaining target (mRNA or protein) (fraction of control): 0.65 for the first, 0.79 for the second.

First: GCAGCCTCCAAGCCAAGT
Second: GCATCGTGGGTGCAGTTG
The remaining target (mRNA or protein) (fraction of control) of the first is higher: 0.58 for the first, 0.53 for the second.

Going from GCGCGCTGTAATTGTCGA to GGCAGTGCCTCCTCTCTC, the remaining target (mRNA or protein) (fraction of control) rises from 0.64 to 0.65.

First: GGGTCCAACCTTGGCTTG
Second: GGGTGTCAGGCTGGGCTC
The remaining target (mRNA or protein) (fraction of control) of the first is lower: 0.42 for the first, 0.85 for the second.

Compared with GGTTCACTGTGCGCCCGT, GTAGCGCACAGCGTGGAT is lower in remaining target (mRNA or protein) (fraction of control): 0.84 for the first, 0.65 for the second.

Compared with GTCAGCAAATGCGTAAGG, GTCAGTAGCGGAAAATGG is higher in remaining target (mRNA or protein) (fraction of control): 0.76 for the first, ≥ 1 for the second.

Compared with GTCCCACAGGTTCAGGTT, GTGCAGTTGCTGTAGTGA is higher in remaining target (mRNA or protein) (fraction of control): 0.69 for the first, 0.9 for the second.

Going from TCTTCTGGACCCCTCTGG to TGGAGAAGGGAGAGAGCA, the remaining target (mRNA or protein) (fraction of control) rises from 0.64 to 0.68.

First: TGTACGGAGGCGGTCATA
Second: TTGTGTAGCAGATGAGCA
The remaining target (mRNA or protein) (fraction of control) of the first is lower: 0.63 for the first, 0.65 for the second.
